Legend:
[1] = Central nervous depressant effect
benzodiazepine receptor = test: Benzodiazepine (BZD) receptor binding, 3H-diazepam displacement, crude cortical membrane preparation; details: for displacement of 3H-diazepam specific binding: crude cortical membrane, 1 hr, 0° C., TRIS-citrate buffer, pH 6.8
Experimental: For the studies of benzodiazepine /BZD) receptor binding crude cortical membrane preparation was used. […] ^3 H-diazepam was incubated with the membrane for 1 hr at 0° C. in TRIS-citrate buffer, pH 6.8. Specific binding was determined in the presence of 10 μM diazepam. In displacement studies chlordiazepoxide was used as control drug.

malaria = details: cited from earlier work
[2] = Screening test: one session conditioning / unconditioned reflex, glass cylinder jump; format: in vivo, rats; details: for inhibition of the development of conditioned reflex: 0.025 mg/kg
Experimental: Was elaborated for studying learning and retention of rats during one session conditioning.
During conditioning rats are trained to jump onto the top of glass cylinder by the electric foot-shock (110 V). The escape reaction (unconditioned reflex, UR) is paired with a bell as conditioned stimulus. The criterion of learning is that conditioned reflex (CR) should be elicited 10 times with 10 s intervals without reinforcement. Retention of CR is taken positive when 24 h following the experiment CR can be elicited. In these experiments animals are distributed into 4 categories on the basis of their learning ability.

[3] = Effect on basal metabolism (O2 consumption); format: in vivo, rats; details: urethane 0.6 g/kg i.p., 30° C.
Experimental: The O2 consumption of rats was measured by the method of Issekutz and Issekutz (1952) at constant temperature (30° C.).
O2 consumption of the animals was expressed in ml/h and calculated for body surface, and given finally in ml/h/dm^2. Following injection of urethane and the basal O2 consumption was measured during 30 minutes. This was followed by the injection of the test substance and O2 consumption was registered immediately afterwards. The difference between the highest O2 consumption and the basal value was expressed in percent.
O2 consumption of the animals was calculated according to the following equation: [formula] V=2000 cm^3 P=pressure fall (mmHg)
T=period of measurement (h)
O2 consumption was calculated for body surface and expressed as ml/dm^2 /h. Body surface was calculated on the basis of the "Diack" formula: […]

[4] = Shuttle-box, acquisition of two-way conditioned avoidance reflex; format: in vivo
Experimental: The acquisition of a two-way conditioned avoidance reflex (CAR) was analyzed in the shuttle-box during 5 consecutive days. […] It consists of six boxes, each is separated inside by a barrier with a small gate in the middle. […] They were given 100 trials per day. One trial consisted of 15 s intertrial interval, followed by 15 s CS. The last 5 s of CS overlapped the first s of US. At each learning session the number of CAR and intersignal reactions (IR) was automatically counted and evaluated by multiway analysis of variance (ANOVA).

Cc1nc2cnc3ccccc3c2s1 [Formula I, 2-methyl-thiazolo[4,5-c]quinoline]
spasmolytic effect (Spasmolytic effect): void of any spasmolytic effect | central nervous depressant effect [1]: significantly stronger central depressant effect than benzodiazepines | binding by benzodiazepine receptors (benzodiazepine receptor): not bound by benzodiazepine receptors | displacement of 3H-diazepam specific binding (benzodiazepine receptor): even in high concentration did not alter the specific binding of ^3 H-diazepam | effect against malaria (malaria): completely ineffective against malaria | escape of animals in the one session unconditioned reflex test ([2]; even in high doses): enables the escape of animals | inhibition of non-specific activation mechanisms ([2]; rat, in vivo): does not inhibit non-specific activation mechanisms

O=C(CCCN1CCC(O)(c2ccc(Cl)cc2)CC1)c1ccc(F)cc1 [Haloperidol, reference compound]
rate of metabolism / O2 consumption [3]: slightly decreased | inhibition of the development of conditioned reflex [2]: strong inhibition

CNC1=Nc2ccc(Cl)cc2C(c2ccccc2)=[N+]([O-])C1 [Chlordiazepoxide, chlordiazepoxide, reference compound]
acquisition of conditioned reflex, number of positive responses (F) ([4]; 5 mg/kg s.c., day 1): 23.1 | number of intersignal reactions (IR) ([4]; 5 mg/kg s.c., day 1): 108 | number of negative responses (-f) ([4]; 5 mg/kg s.c., day 1): 11.8 | acquisition of conditioned reflex, number of positive responses (F) ([4]; 5 mg/kg s.c., day 2): 38.7 | number of intersignal reactions (IR) ([4]; 5 mg/kg s.c., day 2): 14.0 | number of negative responses (-f) ([4]; 5 mg/kg s.c., day 2): 9.1 | acquisition of conditioned reflex, number of positive responses (F) ([4]; 5 mg/kg s.c., day 3): 35.6 | number of intersignal reactions (IR) ([4]; 5 mg/kg s.c., day 3): 8.9 | number of negative responses (-f) ([4]; 5 mg/kg s.c., day 3): 10.2 | acquisition of conditioned reflex, number of positive responses (F) ([4]; 5 mg/kg s.c., day 4): 41.1 | number of intersignal reactions (IR) ([4]; 5 mg/kg s.c., day 4): 6.7 | number of negative responses (-f) ([4]; 5 mg/kg s.c., day 4): 14.9 | acquisition of conditioned reflex, number of positive responses (F) ([4]; 5 mg/kg s.c., day 5): 50.8 | number of intersignal reactions (IR) ([4]; 5 mg/kg s.c., day 5): 4.2 | number of negative responses (-f) ([4]; 5 mg/kg s.c., day 5): 13.0 | number of negative responses (f) (in words) ([4]; 10 mg/kg): increased | acquisition of conditioned reflex, number of positive responses (F) ([4]; 10 mg/kg s.c., day 1): 19.9 | number of intersignal reactions (IR) ([4]; 10 mg/kg s.c., day 1): 10.8 | number of negative responses (-f) ([4]; 10 mg/kg s.c., day 1): 32.7 | acquisition of conditioned reflex, number of positive responses (F) ([4]; 10 mg/kg s.c., day 2): 37.9 | number of intersignal reactions (IR) ([4]; 10 mg/kg s.c., day 2): 14.7 | number of negative responses (-f) ([4]; 10 mg/kg s.c., day 2): 22.8 | acquisition of conditioned reflex, number of positive responses (F) ([4]; 10 mg/kg s.c., day 3): 33.7 | number of intersignal reactions (IR) ([4]; 10 mg/kg s.c., day 3): 8.1 | number of negative responses (-f) ([4]; 10 mg/kg s.c., day 3): 31.8 | acquisition of conditioned reflex, number of positive responses (F) ([4]; 10 mg/kg s.c., day 4): 35.6 | number of intersignal reactions (IR) ([4]; 10 mg/kg s.c., day 4): 6.3 | number of negative responses (-f) ([4]; 10 mg/kg s.c., day 4): 36.5 | acquisition of conditioned reflex, number of positive responses (F) ([4]; 10 mg/kg s.c., day 5): 41.2 | number of intersignal reactions (IR) ([4]; 10 mg/kg s.c., day 5): 6.1 | number of negative responses (-f) ([4]; 10 mg/kg s.c., day 5): 40.8 | acquisition of conditioned reflex, number of positive responses (F) ([4]; 25 mg/kg s.c., day 1): 9.7 | number of negative responses (-f) ([4]; 25 mg/kg s.c., day 1): 74.0 | acquisition of conditioned reflex, number of positive responses (F) ([4]; 25 mg/kg s.c., day 2): 12.2 | number of negative responses (-f) ([4]; 25 mg/kg s.c., day 2): 67.5 | acquisition of conditioned reflex, number of positive responses (F) ([4]; 25 mg/kg s.c., day 3): 17.9 | number of negative responses (-f) ([4]; 25 mg/kg s.c., day 3): 67.0 | acquisition of conditioned reflex, number of positive responses (F) ([4]; 25 mg/kg s.c., day 4): 20.0 | number of negative responses (-f) ([4]; 25 mg/kg s.c., day 4): 65.6 | acquisition of conditioned reflex, number of positive responses (F) ([4]; 25 mg/kg s.c., day 5): 21.4 | number of negative responses (-f) ([4]; 25 mg/kg s.c., day 5): 59.8 | acquisition of conditioned reflex (in words) ([4]; 10 and 5 mg/kg): unchanged | intersignal reactions (IR) (in words) ([4]; 10 and 5 mg/kg): unchanged | displacement of 3H-diazepam specific binding (benzodiazepine receptor): displaced ^3 H-diazepam on the receptor in concentration dependent manner | inhibition of the development of conditioned reflex [2]: does not influence the development of CR
